Reference: PubChem BioAssay (NCI)
“And” between values parts separate entries of the source, which are not always exact repeats. Equal values may be shown once.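 Dose response: 5 concentrations. Exposure: 48 h. Format: 96-well plates. Endpoint: linear interpolation; highest concentration if not reached. GI50: concentration for 50% inhibition of growth. TGI is the concentration that stops growth completely.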

How the values were obtained:
Test in all cases: NCI tumour cell line growth inhibition, 48 h
COLO 205 colon = test system: COLO 205 colon
OVCAR-5 ovarian = test system: OVCAR-5 ovarian
CAKI-1 renal = test system: CAKI-1 renal
M14 melanoma = test system: M14 melanoma
SNB-19 CNS = test system: SNB-19 CNS
K-562 leukemia = test system: K-562 leukemia
HL-60(TB) leukemia = test system: HL-60(TB) leukemia
OVCAR-8 ovarian = test system: OVCAR-8 ovarian
SK-MEL-2 melanoma = test system: SK-MEL-2 melanoma
A549 NSCLC = test system: A549 NSCLC

## CC(C)c1[nH]nc2c1N=C(c1ccccc1Cl)c1cc([N+](=O)[O-])ccc1N2
COLO 205 colon
  GI50: 10.3 µM
  TGI: > 25 µM
OVCAR-5 ovarian
  GI50: 12.2 µM
  TGI: > 25 µM
CAKI-1 renal
  GI50: 2530 nM
  TGI: > 13.7 µM
M14 melanoma
  GI50: 7630 nM
  TGI: > 25 µM
SNB-19 CNS
  GI50: 11.8 µM
  TGI: > 25 µM
K-562 leukemia
  GI50: 1980 nM
  TGI: > 25 µM
HL-60(TB) leukemia
  GI50: 4.99 µM
  TGI: 12.2 µM
OVCAR-8 ovarian
  GI50: 9100 nM
  TGI: > 25 µM
SK-MEL-2 melanoma
  GI50: 5490 nM
  TGI: 13.4 µM
A549 NSCLC
  GI50: 5180 nM
  TGI: > 22.3 µM

## N#CCCN1C/C(=C/c2ccc(Br)cc2)C(=O)/C(=C/c2ccc(Br)cc2)C1
COLO 205 colon
  GI50: 1.57 µM
  TGI: 2.97 µM
OVCAR-5 ovarian
  GI50: 1.92 µM
  TGI: 3.97 µM
CAKI-1 renal
  GI50: 2780 nM
  TGI: > 100 µM
M14 melanoma
  GI50: 1990 nM
  TGI: 4.15 µM
SNB-19 CNS
  GI50: 1.59 µM
  TGI: 3.76 µM
K-562 leukemia
  GI50: 454 nM
  TGI: > 100 µM
HL-60(TB) leukemia
  GI50: 2.55 µM
  TGI: > 100 µM
OVCAR-8 ovarian
  GI50: 1140 nM
  TGI: > 100 µM
SK-MEL-2 melanoma
  GI50: 2600 nM
  TGI: 6.54 µM
A549 NSCLC
  GI50: 2380 nM
  TGI: 26.3 µM

## CCc1ccc2c(c1)C(=O)c1c-2n(CCCN=[N+]=[N-])c(=O)c2cc([N+](=O)[O-])ccc12
COLO 205 colon
  GI50: > 50 µM
  TGI: > 50 µM
OVCAR-5 ovarian
  GI50: > 50 µM
  TGI: > 50 µM
CAKI-1 renal
  GI50: > 50000 nM
  TGI: > 50 µM
M14 melanoma
  GI50: > 50000 nM
  TGI: > 50 µM
SNB-19 CNS
  GI50: > 50 µM
  TGI: > 50 µM
K-562 leukemia
  GI50: > 50000 nM
  TGI: > 50 µM
HL-60(TB) leukemia
  GI50: > 50 µM
  TGI: > 50 µM
OVCAR-8 ovarian
  GI50: > 50000 nM
  TGI: > 50 µM
SK-MEL-2 melanoma
  GI50: > 50000 nM
  TGI: > 50 µM
A549 NSCLC
  GI50: > 50000 nM
  TGI: > 50 µM

## NC(=O)C(=O)CC(=O)c1ccccc1NC1=CC(=O)C(=O)c2ccccc21
COLO 205 colon
  TGI: > 100 µM
OVCAR-5 ovarian
  TGI: > 100 µM
CAKI-1 renal
  TGI: > 100 µM
M14 melanoma
  TGI: > 100 µM
SNB-19 CNS
  TGI: > 100 µM
K-562 leukemia
  TGI: > 100 µM
HL-60(TB) leukemia
  TGI: > 76.6 µM
OVCAR-8 ovarian
  TGI: > 100 µM
SK-MEL-2 melanoma
  TGI: > 100 µM
A549 NSCLC
  TGI: > 100 µM

## Nc1nc(-c2ccc(Cl)c([N+](=O)[O-])c2)cs1
COLO 205 colon
  TGI: > 100 µM
OVCAR-5 ovarian
  TGI: > 100 µM
CAKI-1 renal
  TGI: > 100 µM
M14 melanoma
  TGI: > 100 µM
SNB-19 CNS
  TGI: > 100 µM
K-562 leukemia
  TGI: > 100 µM
HL-60(TB) leukemia
  TGI: > 100 µM
OVCAR-8 ovarian
  TGI: > 100 µM
SK-MEL-2 melanoma
  TGI: > 100 µM
A549 NSCLC
  TGI: > 100 µM

## Nc1ccccc1C(=O)/C=C/c1c(O)ccc2ccccc12
COLO 205 colon
  TGI: > 100 µM
OVCAR-5 ovarian
  TGI: > 100 µM
CAKI-1 renal
  TGI: > 100 µM
M14 melanoma
  TGI: > 100 µM
SNB-19 CNS
  TGI: > 100 µM
K-562 leukemia
  TGI: > 100 µM
HL-60(TB) leukemia
  TGI: > 100 µM
OVCAR-8 ovarian
  TGI: > 100 µM
SK-MEL-2 melanoma
  TGI: > 100 µM
A549 NSCLC
  TGI: > 100 µM

## c1ccc2c(c1)[nH]c1c2cc[n+]2cc3c(cc12)CCCC3
COLO 205 colon
  GI50: 1.9 µM
  TGI: 5.45 µM and 3.56 µM
OVCAR-5 ovarian
  GI50: 3.87 µM
  TGI: 17.9 µM and 13.6 µM
CAKI-1 renal
  TGI: 36.2 µM and 32 µM
M14 melanoma
  GI50: 3010 nM
  TGI: 14 µM and 7.29 µM
SNB-19 CNS
  TGI: 12 µM and 9.35 µM
K-562 leukemia
  GI50: 2760 nM
  TGI: 12.5 µM and 10.8 µM
HL-60(TB) leukemia
  GI50: 1.27 µM
  TGI: 5.39 µM
OVCAR-8 ovarian
  GI50: 1950 nM
  TGI: 7.57 µM and 11.2 µM
SK-MEL-2 melanoma
  GI50: 1440 nM
A549 NSCLC
  GI50: 4880 nM
  TGI: 24.6 µM and 30.8 µM

## COc1ccc(-c2cnnn2-c2nonc2-n2cccc2)cc1
COLO 205 colon
  GI50: 0.235 µM
  TGI: 0.787 µM
OVCAR-5 ovarian
  GI50: 1.45 µM
  TGI: > 100 µM
CAKI-1 renal
  GI50: 245 nM
  TGI: > 67.1 µM
M14 melanoma
  GI50: 209 nM
  TGI: 6.62 µM
SNB-19 CNS
  GI50: 0.722 µM
  TGI: > 100 µM
K-562 leukemia
  GI50: 39 nM
  TGI: > 100 µM
HL-60(TB) leukemia
  GI50: 0.177 µM
  TGI: 0.547 µM
OVCAR-8 ovarian
  GI50: 425 nM
  TGI: 18.9 µM
SK-MEL-2 melanoma
  GI50: 189 nM
  TGI: 0.8 µM
A549 NSCLC
  GI50: 450 nM
  TGI: > 44.8 µM

## COC(=O)/C(=N/O)C(C(=O)C=C(C)C)C(=O)C(=O)Nc1nc2ccc([N+](=O)[O-])cc2s1 (stereo not drawn)
COLO 205 colon
  TGI: > 100 µM
OVCAR-5 ovarian
  TGI: > 100 µM
CAKI-1 renal
  TGI: 97 µM
M14 melanoma
  TGI: > 100 µM
SNB-19 CNS
  TGI: > 100 µM
K-562 leukemia
  TGI: > 100 µM
HL-60(TB) leukemia
  TGI: > 100 µM
OVCAR-8 ovarian
  TGI: > 100 µM
SK-MEL-2 melanoma
  TGI: 71.9 µM
A549 NSCLC
  TGI: > 100 µM

## O=C(/C(=C\c1c(-c2ccccc2)[nH]c2ccccc12)S(=O)(=O)c1ccccc1)c1ccccc1
COLO 205 colon
  GI50: 7.8 µM
  TGI: > 100 µM
OVCAR-5 ovarian
  GI50: > 100 µM
  TGI: > 100 µM
CAKI-1 renal
  GI50: 3130 nM
  TGI: > 100 µM
M14 melanoma
  GI50: 15600 nM
  TGI: > 100 µM
SNB-19 CNS
  GI50: > 100 µM
  TGI: > 100 µM
K-562 leukemia
  GI50: 6530 nM
  TGI: > 100 µM
HL-60(TB) leukemia
  GI50: 4.98 µM
  TGI: > 100 µM
OVCAR-8 ovarian
  GI50: > 100000 nM
  TGI: > 100 µM
SK-MEL-2 melanoma
  GI50: > 100000 nM
  TGI: > 100 µM
A549 NSCLC
  GI50: 35000 nM
  TGI: > 100 µM

## Nc1cc2c(cc1Br)[nH]c(=O)c1ccccc12
COLO 205 colon
  GI50: 3.34 µM
OVCAR-5 ovarian
  GI50: 6.91 µM
  TGI: 41.1 µM
CAKI-1 renal
  GI50: 5390 nM
  TGI: 53.4 µM
M14 melanoma
  GI50: 2920 nM
  TGI: 10 µM
SNB-19 CNS
  GI50: 5.25 µM
  TGI: 20.2 µM
K-562 leukemia
  GI50: 5780 nM
  TGI: > 100 µM
HL-60(TB) leukemia
  GI50: 10.8 µM
  TGI: 54.3 µM
OVCAR-8 ovarian
  GI50: 3370 nM
  TGI: > 100 µM
SK-MEL-2 melanoma
  GI50: 3440 nM
  TGI: 11.2 µM
A549 NSCLC
  GI50: 2910 nM
  TGI: 11.4 µM

## CC(C)[C@H](O)C(=O)N[C@@H](C)C(=O)N[C@@H]1C(=O)N(C)CCc2ccccc21
COLO 205 colon
  GI50: > 100 µM
  TGI: > 100 µM
OVCAR-5 ovarian
  GI50: > 100 µM
  TGI: > 100 µM
CAKI-1 renal
  GI50: > 100000 nM
  TGI: > 100 µM
M14 melanoma
  GI50: > 100000 nM
  TGI: > 100 µM
SNB-19 CNS
  GI50: > 100 µM
  TGI: > 100 µM
K-562 leukemia
  GI50: > 100000 nM
  TGI: > 100 µM
HL-60(TB) leukemia
  GI50: > 100 µM
  TGI: > 100 µM
OVCAR-8 ovarian
  GI50: > 100000 nM
  TGI: > 100 µM
SK-MEL-2 melanoma
  GI50: > 100000 nM
  TGI: > 100 µM
A549 NSCLC
  GI50: > 100000 nM
  TGI: > 100 µM

## COC(c1ccc(C(C)(C)C)cc1)(c1ccc(C(C)(C)C)cc1)c1ccc(C(C)(C)C)cc1
COLO 205 colon
  TGI: > 100 µM
OVCAR-5 ovarian
  TGI: > 100 µM
CAKI-1 renal
  TGI: > 100 µM
M14 melanoma
  TGI: > 100 µM
SNB-19 CNS
  TGI: > 100 µM
K-562 leukemia
  TGI: > 100 µM
HL-60(TB) leukemia
  TGI: > 100 µM
OVCAR-8 ovarian
  TGI: > 100 µM
SK-MEL-2 melanoma
  TGI: > 100 µM
A549 NSCLC
  TGI: > 100 µM

## OC(c1cc(-c2ccc(C(F)(F)F)cc2)nc(C(F)(F)F)c1)C1CCCCN1 (stereo not drawn)
COLO 205 colon
  TGI: 3.42 µM and 3.15 µM
OVCAR-5 ovarian
  GI50: 1.53 µM and 2.71 µM
  TGI: 2.87 µM and 7.52 µM
CAKI-1 renal
  GI50: 1480 nM
  TGI: 2.81 µM and 17.7 µM
M14 melanoma
  TGI: 3.12 µM and 3.14 µM
SNB-19 CNS
  GI50: 1.53 µM and 5.66 µM
  TGI: 2.92 µM and 13.5 µM
K-562 leukemia
  GI50: 1200 nM and 1910 nM
  TGI: 2.94 µM and 4.06 µM
HL-60(TB) leukemia
  GI50: 1.43 µM
  TGI: 3.67 µM and 4.11 µM
OVCAR-8 ovarian
  GI50: 1870 nM and 2200 nM
  TGI: 3.62 µM and 4.59 µM
SK-MEL-2 melanoma
  TGI: 3.42 µM and 3.49 µM
A549 NSCLC
  GI50: 1840 nM and 2050 nM
  TGI: 3.4 µM and 4.92 µM

## COc1ccc(-c2nn(-c3cccc(Cl)c3)cc2-c2cc(-c3ccccc3)[nH]c(=O)c2C#N)cc1
COLO 205 colon
  GI50: 7.4 µM
  TGI: > 50 µM
OVCAR-5 ovarian
  GI50: 32.3 µM
  TGI: > 50 µM
CAKI-1 renal
  GI50: 1300 nM
  TGI: 6.09 µM
M14 melanoma
  GI50: 2270 nM
  TGI: 34.6 µM
SNB-19 CNS
  GI50: 2.76 µM
  TGI: 38.6 µM
K-562 leukemia
  GI50: 9220 nM
  TGI: > 50 µM
HL-60(TB) leukemia
  GI50: 21.9 µM
  TGI: > 50 µM
OVCAR-8 ovarian
  GI50: 1670 nM
  TGI: > 50 µM
SK-MEL-2 melanoma
  GI50: 2130 nM
  TGI: 9.35 µM
A549 NSCLC
  GI50: 2260 nM
  TGI: > 50 µM
